Assay results reported in PubChem BioAssay AID1259407 (Chemical Carcinogenesis Research Information System (CCRIS), 2018).
Calls of active or inactive are those of the source. No rule for the calls is given here.

Test system: CCRIS mutagenicity, Ames/micronucleus/aberration tests
Test: CCRIS mutagenicity studies
[1] = Test System: AMES SALMONELLA TYPHIMURIUM, Strain/Indicator: TA98, Metabolic Activation: NONE, Method: PREINCUBATION
[2] = Test System: AMES SALMONELLA TYPHIMURIUM, Strain/Indicator: TA100, Metabolic Activation: NONE, Method: PREINCUBATION
[3] = Test System: AMES SALMONELLA TYPHIMURIUM, Strain/Indicator: TA98, Metabolic Activation: NONE, Method: STANDARD PLATE
[4] = Test System: AMES SALMONELLA TYPHIMURIUM, Strain/Indicator: TA100, Metabolic Activation: NONE, Method: STANDARD PLATE

With `Nc1nc(-c2ccc([N+](=O)[O-])cc2)nc2c1ncn2-c1ccc([N+](=O)[O-])cc1` as the compound, how does the mutagenic call (Test System: AMES SALMONELLA TYPHIMURIUM, Strain/Indicator: TA98(1,8-DNP), Metabolic Activation: NONE, Method: PREINCUBATION) read?
Its mutagenic call is “active; positive”.

What about the mutagenic call (Test System: AMES SALMONELLA TYPHIMURIUM, Strain/Indicator: TA98(1,8-DNP), Metabolic Activation: RAT, LIVER, S-9, PCB, Method: PREINCUBATION) of the same compound?
Its mutagenic call is “active; positive”.

What about the mutagenic call (Test System: AMES SALMONELLA TYPHIMURIUM, Strain/Indicator: TA98(NR), Metabolic Activation: NONE, Method: PREINCUBATION) of the same compound?
The mutagenic call was “active; positive”.

And the mutagenic call (Test System: AMES SALMONELLA TYPHIMURIUM, Strain/Indicator: TA98(NR), Metabolic Activation: RAT, LIVER, S-9, PCB, Method: PREINCUBATION)?
Its mutagenic call is “active; positive”.

What about the mutagenic call [1] of the same compound?
The mutagenic call was “active; positive”.

What about the mutagenic call (Test System: AMES SALMONELLA TYPHIMURIUM, Strain/Indicator: TA98, Metabolic Activation: RAT, LIVER, S-9, PCB, Method: PREINCUBATION) of the same compound?
The mutagenic call was “active; positive”.

What about the mutagenic call (Test System: AMES SALMONELLA TYPHIMURIUM, Strain/Indicator: TA100(1,8-DNP), Metabolic Activation: NONE, Method: PREINCUBATION) of the same compound?
Its mutagenic call is “active; positive”.

And the mutagenic call (Test System: AMES SALMONELLA TYPHIMURIUM, Strain/Indicator: TA100(1,8-DNP), Metabolic Activation: RAT, LIVER, S-9, PCB, Method: PREINCUBATION)?
Its mutagenic call is “inactive; negative”.

And the mutagenic call (Test System: AMES SALMONELLA TYPHIMURIUM, Strain/Indicator: TA100(NR), Metabolic Activation: NONE, Method: PREINCUBATION)?
Its mutagenic call is “active; positive”.

And the mutagenic call (Test System: AMES SALMONELLA TYPHIMURIUM, Strain/Indicator: TA100(NR), Metabolic Activation: RAT, LIVER, S-9, PCB, Method: PREINCUBATION)?
The mutagenic call was “inactive; negative”.

And the mutagenic call [2]?
Its mutagenic call is “active; positive”.

And the mutagenic call (Test System: AMES SALMONELLA TYPHIMURIUM, Strain/Indicator: TA100, Metabolic Activation: RAT, LIVER, S-9, PCB, Method: PREINCUBATION)?
The mutagenic call was “active; positive”.

And the mutagenic call (Test System: AMES SALMONELLA TYPHIMURIUM, Strain/Indicator: YG1020, Metabolic Activation: NONE, Method: PREINCUBATION)?
The mutagenic call was “active; positive”.

And the mutagenic call (Test System: AMES SALMONELLA TYPHIMURIUM, Strain/Indicator: YG1020, Metabolic Activation: RAT, LIVER, S-9, PCB, Method: PREINCUBATION)?
Its mutagenic call is “active; positive”.

What about the mutagenic call (Test System: AMES SALMONELLA TYPHIMURIUM, Strain/Indicator: YG1021, Metabolic Activation: NONE, Method: PREINCUBATION) of the same compound?
Its mutagenic call is “active; positive”.

What about the mutagenic call (Test System: AMES SALMONELLA TYPHIMURIUM, Strain/Indicator: YG1021, Metabolic Activation: RAT, LIVER, S-9, PCB, Method: PREINCUBATION) of the same compound?
Its mutagenic call is “active; positive”.

What about the mutagenic call (Test System: AMES SALMONELLA TYPHIMURIUM, Strain/Indicator: YG1024, Metabolic Activation: NONE, Method: PREINCUBATION) of the same compound?
Its mutagenic call is “active; positive”.

And the mutagenic call (Test System: AMES SALMONELLA TYPHIMURIUM, Strain/Indicator: YG1024, Metabolic Activation: RAT, LIVER, S-9, PCB, Method: PREINCUBATION)?
The mutagenic call was “active; positive”.

What about the mutagenic call (Test System: AMES SALMONELLA TYPHIMURIUM, Strain/Indicator: YG1025, Metabolic Activation: NONE, Method: PREINCUBATION) of the same compound?
The mutagenic call was “active; positive”.

And the mutagenic call (Test System: AMES SALMONELLA TYPHIMURIUM, Strain/Indicator: YG1025, Metabolic Activation: RAT, LIVER, S-9, PCB, Method: PREINCUBATION)?
Its mutagenic call is “active; positive”.

What about the mutagenic call (Test System: AMES SALMONELLA TYPHIMURIUM, Strain/Indicator: YG1026, Metabolic Activation: NONE, Method: PREINCUBATION) of the same compound?
Its mutagenic call is “active; positive”.

And the mutagenic call (Test System: AMES SALMONELLA TYPHIMURIUM, Strain/Indicator: YG1026, Metabolic Activation: RAT, LIVER, S-9, PCB, Method: PREINCUBATION)?
The mutagenic call was “active; positive”.

What about the mutagenic call (Test System: AMES SALMONELLA TYPHIMURIUM, Strain/Indicator: YG1029, Metabolic Activation: NONE, Method: PREINCUBATION) of the same compound?
The mutagenic call was “active; positive”.

What about the mutagenic call (Test System: AMES SALMONELLA TYPHIMURIUM, Strain/Indicator: YG1029, Metabolic Activation: RAT, LIVER, S-9, PCB, Method: PREINCUBATION) of the same compound?
Its mutagenic call is “active; positive”.

For `N=c1ccc2c(-c3ccccc3C(=O)O)c3ccc(N)cc3oc-2c1`, which mutagenic call (Test System: AMES SALMONELLA TYPHIMURIUM, Strain/Indicator: TA1538, Metabolic Activation: NONE, Method: STANDARD PLATE) is on record?
Its mutagenic call is “inactive; negative”.

And the mutagenic call (Test System: AMES SALMONELLA TYPHIMURIUM, Strain/Indicator: TA1538, Metabolic Activation: RAT, LIVER, S-9, AROCLOR 1254, Method: STANDARD PLATE)?
Its mutagenic call is “inactive; negative”.

What does the source list for `O=Cc1cccc(-c2ccccc2)c1`?
mutagenic call [3]: inactive; negative; mutagenic call (Test System: AMES SALMONELLA TYPHIMURIUM, Strain/Indicator: TA98, Metabolic Activation: RAT, LIVER, S-9, AROCLOR 1254, Method: STANDARD PLATE): inactive; negative; mutagenic call [4]: inactive; negative; mutagenic call (Test System: AMES SALMONELLA TYPHIMURIUM, Strain/Indicator: TA100, Metabolic Activation: RAT, LIVER, S-9, AROCLOR 1254, Method: STANDARD PLATE): inactive; negative

Which mutagenic call (Test System: CHINESE HAMSTER V-79, Strain/Indicator: V-79 (HPRT)/6-THIOGUANINE, Metabolic Activation: NONE) does the source give for `CC(=O)/C=C/CCC(=O)/C=C/C(=O)O[C@@H](CCC(=O)/C=C/C(=O)O)CC(C)=O` here?
The mutagenic call was “active; positive”.

`CCOC(=O)OC(=O)OCC` was tested. Which mutagenic call [3] did it give?
The mutagenic call was “inactive; negative”.

What about the mutagenic call [4] of the same compound?
Its mutagenic call is “inactive; negative”.

`NC(Cc1ccccc1)C(=O)O` (centres undefined) was tested. Which mutagenic call (Test System: AMES SALMONELLA TYPHIMURIUM, Strain/Indicator: TA98, Metabolic Activation: RAT LIVER S-9, CHLOROPHENE, Method: STANDARD PLATE (COMPOUND HEATED AT 250 DEGREES CELSIUS FOR 20 MIN)) did it give?
Its mutagenic call is “inactive; negative”.

Which mutagenic call (Test System: AMES SALMONELLA TYPHIMURIUM, Strain/Indicator: TA100, Metabolic Activation: S-9, Method: PREINCUBATION) does the source give for `N#Cc1cccc2cccnc12` here?
The mutagenic call was “active; positive”.

How did the mutagenic call (Test System: AMES SALMONELLA TYPHIMURIUM, Strain/Indicator: TA97, Metabolic Activation: HAMSTER, LIVER, S-9, AROCLOR 1254 (10%), Method: PREINCUBATION) turn out when `Nc1ccc(F)cc1F` was run?
Its mutagenic call is “inactive; negative”.

And the mutagenic call (Test System: AMES SALMONELLA TYPHIMURIUM, Strain/Indicator: TA97, Metabolic Activation: HAMSTER, LIVER, S-9, AROCLOR 1254 (30%), Method: PREINCUBATION)?
The mutagenic call was “inactive; negative”.

What about the mutagenic call (Test System: AMES SALMONELLA TYPHIMURIUM, Strain/Indicator: TA97, Metabolic Activation: NONE, Method: PREINCUBATION) of the same compound?
Its mutagenic call is “inactive; negative”.

What about the mutagenic call (Test System: AMES SALMONELLA TYPHIMURIUM, Strain/Indicator: TA97, Metabolic Activation: RAT, LIVER, S-9, AROCLOR 1254 (10%), Method: PREINCUBATION) of the same compound?
Its mutagenic call is “inactive; negative”.

And the mutagenic call (Test System: AMES SALMONELLA TYPHIMURIUM, Strain/Indicator: TA97, Metabolic Activation: RAT, LIVER, S-9, AROCLOR 1254 (30%), Method: PREINCUBATION)?
Its mutagenic call is “inactive; negative”.

What about the mutagenic call (Test System: AMES SALMONELLA TYPHIMURIUM, Strain/Indicator: TA98, Metabolic Activation: HAMSTER, LIVER, S-9, AROCLOR 1254 (10%), Method: PREINCUBATION) of the same compound?
Its mutagenic call is “inactive; negative”.

What about the mutagenic call (Test System: AMES SALMONELLA TYPHIMURIUM, Strain/Indicator: TA98, Metabolic Activation: HAMSTER, LIVER, S-9, AROCLOR 1254 (30%), Method: PREINCUBATION) of the same compound?
Its mutagenic call is “active; positive”.

And the mutagenic call [1]?
Its mutagenic call is “inactive; negative”.

And the mutagenic call (Test System: AMES SALMONELLA TYPHIMURIUM, Strain/Indicator: TA98, Metabolic Activation: RAT, LIVER, S-9, AROCLOR 1254 (10%), Method: PREINCUBATION)?
The mutagenic call was “inactive; negative”.

What about the mutagenic call (Test System: AMES SALMONELLA TYPHIMURIUM, Strain/Indicator: TA98, Metabolic Activation: RAT, LIVER, S-9, AROCLOR 1254 (30%), Method: PREINCUBATION) of the same compound?
The mutagenic call was “inactive; negative”.

What about the mutagenic call (Test System: AMES SALMONELLA TYPHIMURIUM, Strain/Indicator: TA100, Metabolic Activation: HAMSTER, LIVER, S-9, AROCLOR 1254 (5 OR 10%), Method: PREINCUBATION) of the same compound?
The mutagenic call was “inactive; negative”.

And the mutagenic call (Test System: AMES SALMONELLA TYPHIMURIUM, Strain/Indicator: TA100, Metabolic Activation: HAMSTER, LIVER, S-9, AROCLOR 1254 (30%), Method: PREINCUBATION)?
The mutagenic call was “active; positive”.

And the mutagenic call [2]?
Its mutagenic call is “inactive; negative”.

And the mutagenic call (Test System: AMES SALMONELLA TYPHIMURIUM, Strain/Indicator: TA100, Metabolic Activation: RAT, LIVER, S-9, AROCLOR 1254 (5, 10 OR 30%), Method: PREINCUBATION)?
Its mutagenic call is “inactive; negative”.

What about the mutagenic call (Test System: AMES SALMONELLA TYPHIMURIUM, Strain/Indicator: TA1535, Metabolic Activation: HAMSTER, LIVER, S-9, AROCLOR 1254 (10%), Method: PREINCUBATION) of the same compound?
The mutagenic call was “inactive; negative”.

What about the mutagenic call (Test System: AMES SALMONELLA TYPHIMURIUM, Strain/Indicator: TA1535, Metabolic Activation: HAMSTER, LIVER, S-9, AROCLOR 1254 (30%), Method: PREINCUBATION) of the same compound?
Its mutagenic call is “inactive; negative”.

And the mutagenic call (Test System: AMES SALMONELLA TYPHIMURIUM, Strain/Indicator: TA1535, Metabolic Activation: NONE, Method: PREINCUBATION)?
The mutagenic call was “inactive; negative”.

What about the mutagenic call (Test System: AMES SALMONELLA TYPHIMURIUM, Strain/Indicator: TA1535, Metabolic Activation: RAT, LIVER, S-9, AROCLOR 1254 (10%), Method: PREINCUBATION) of the same compound?
The mutagenic call was “inactive; negative”.

And the mutagenic call (Test System: AMES SALMONELLA TYPHIMURIUM, Strain/Indicator: TA1535, Metabolic Activation: RAT, LIVER, S-9, AROCLOR 1254 (30%), Method: PREINCUBATION)?
The mutagenic call was “inactive; negative”.
